Columns and labels:
spiders = experiment: Foliar spray trial on Bollgard II cotton, Norwood 2010-11 (Example 7): spiders; type: in vivo, Lycosa spp., Oxyopes spp., Salticidae spp., Araneus spp.; details: fipronil 62.5 mL/ha; for number of spiders per meter: 1st spray, BC 667/DAT 511 0.50 L/ha; for number of spiders per metre: 2nd spray, BC 667/DAT 511 0.5 L/ha
Procedure: The trial was conducted on commercial Bollgard II® cotton crops at Norwood near Moree, NSW from 5 Dec. 2010 to 19 Feb. 2011. The cotton was at the early squaring stage, when it was attractive to green mirids (Khan et al. 2004).
(§1) The study evaluated the efficacy of the following treatments against green mirids, green vegetable bugs and predatory insects: • 1. 500 mL/ha BC 667 spore in oil (1×10^7 spores/ml); • 2. 500 mL/ha DAT 511 spore in oil (1×10^7 spores/ml); • 3. 62.5 mL/ha Fipronil (conventional insecticide); and • 4. Unsprayed (control).
(§2) The treatment plots were arranged in a randomized complete block design with four replicates per treatment. Each replicated plot measured 0.5 ha. Foliar application of each treatment was made on 18 Jan. 2011 using a ground spray rig fitted with flat fan nozzles to achieve a droplet size of 80 250 μm. The treatment was applied in the mornings when temperature was between 20° C. and 28° C. The timing of treatment was based on an economic threshold of 0.5 green mirids per metre, the IPM guideline and recommendation by CottonLogic.
Pre-treatment counts of green mirid adults and nymphs, predatory beetles, predatory bugs, predatory lacewings and spiders were made by visual inspection of whole cotton plants. Both adults and nymphs of the beneficial insects were counted. Plants were assessed in randomly selected one-metre lengths of row of each treatment replicate (i.e. four metres per treatment). In all, two spray applications of each treatment were made. The first spray was made on 18 Jan. 2011. Post-treatment counts of the first spray application were taken 3, 7 and 14 days after treatment (DAT) (first spray). A second spray application was done on 1 Feb. 2011 when green mirid adults plus nymphs reached the threshold of 0.5 per metre. Post-treatment counts of the second spray application were taken 3, 7, 14, 21 and 28 DAT. Data are expressed as numbers of individuals of that species counted per metre for each treatment.

[1] = Foliar spray trial on Bollgard II cotton, Norwood 2010-11 (Example 7): yield; type: in vivo; details: BC 667/DAT 511 0.50 L/ha, fipronil 62.5 mL/ha
Procedure: as §1, §2
Cotton in each treated plot was harvested separately using a four-row picker (John Deere, Model 9965, USA) at the end of the season and the average lint yields (bales/acre) were compared between treatments.

predatory lacewings = experiment: Bollgard II cotton, Auscott-Togo 2012-13, Field 63 (Experiment 2): predatory lacewings; type: in vivo, Chrysopa spp., Micromus tasmaniae; details: 62.5 mL/ha
Procedure: Two separate trials (Experiment 1 in Field 77; Experiment 2 in Field 63) were conducted in Bollgard II cotton crops on a commercial cotton farm at Auscott-Togo near Narrabri, New South Wales from 11 Feb. to 5 Mar. 2013 (Field 77) and 19 Feb. to 6 Mar. 2013 (Field 63). The cotton used for each of the trials was at the late squaring to pod setting and maturation stages which was fairly attractive to green mirids.
In both trials, the efficacy of the following treatments against green mirids and predatory insects was evaluated: • 1. 250 mL/ha DAT 511 spore in oil (1×10^7 spores/ml); • 2. 500 mL/ha DAT 511 spore in oil (1×10^7 spores/ml); • 3. 1 L/ha DAT 511 spore in oil (1×10^7 spores/ml); • 4. 62.5 mL/ha of fipronil; and • 5. Unsprayed (negative control).
The treatment plots were arranged in a randomized complete block design with six replicates per treatment. Each replicated plot measured 40 m wide (40 rows) and 90 m long.
Foliar application of each treatment was made on 28 Feb. (for both green mirids and beneficial insects) and 13 Mar. 2012 (for beneficial insects alone) using a ground spray rig fitted with flat fan nozzles to achieve a droplet size of 200 μm. The treatment was applied during the mornings when temperatures were between 20° C. and 28° C. The timing of treatment was based on the IPM Guidelines and recommendations by CottonLogic to use an economic threshold of 0.5 green mirids per metre (Deutscher and Wilson 1999; Khan et al. 2004).
Pre-treatment counts of green mirid adults and nymphs, predatory beetles, predatory bugs, predatory lacewings and spiders were made by visual inspection of whole cotton plants. Both adults and nymphs of beneficial insects were counted. Plants were assessed in randomly selected one-metre lengths of row of each replicate (i.e. 6 m per treatment). Post-treatment counts were made 3, 7, 14 and 21 days after treatment. Data are expressed as numbers of green mirid adults and nymphs counted per metre for each treatment.

N#Cc1nn(-c2c(Cl)cc(C(F)(F)F)cc2Cl)c(N)c1[S+]([O-])C(F)(F)F (stereo not shown) [fipronil]
number of spiders per meter (spiders; 3 DAT): 3.33 ± 0.33 a per meter
number of spiders per meter (spiders; 7 DAT): 4.67 ± 2.03 b per meter
number of spiders per meter (spiders; 14 DAT): 9.67 ± 1.45 a per meter
number of spiders per meter (spiders; pre-spray counts 18 Jan. 2011): 9.33 ± 1.20 a per meter
number of spiders per metre (spiders; 3 DAT): 12.00 ± 1.16a per metre
number of spiders per metre (spiders; 7 DAT): 10.33 ± 2.67a per metre
number of spiders per metre (spiders; 14 DAT): 16.00 ± 0.58b per metre
number of spiders per metre (spiders; 21 DAT): 21.00 ± 3.22a per metre
number of spiders per metre (spiders; 28 DAT): 21.00 ± 3.00a per metre
number of spiders per metre (spiders; pre-spray counts 1 Feb. 2011): 9.67 ± 1.45a per metre
Yields (bales/acre) [1]: 4.67 ± 0.63 a bales/acre
No. predatory lacewings per meter (predatory lacewings; 3 DAT): 0.00 ± 0.00 a per meter
No. predatory lacewings per meter (predatory lacewings; 7 DAT): 0.00 ± 0.00 a per meter
No. predatory lacewings per meter (predatory lacewings; 14 DAT): 0.00 ± 0.00 a per meter
No. predatory lacewings per meter (predatory lacewings; 21 DAT): 0.00 ± 0.00 a per meter
No. predatory lacewings per meter (predatory lacewings; pre-spray counts): 0.67 ± 0.33 a per meter

— US10563272B2, “Compositions comprising Metarhizium fungi and use thereof as a pesticide” (Cotton Research and Development Corporation, priority 2015, dated 2020)
